Paper PMC9973354 (mBio, 2022)
Starred links: 1 amine or outer side, 2 acyl side, 3 side chain; linkers in the order of their positions; H or OH if unused. Positions of bridges follow the written chain, without caps; N, C: chain ends. Non-standard residues stand in square brackets, D forms with d. Residues, ends and D or L forms follow the SMILES beside them. ξ: configuration not given here. X1 = O=C([C@@H]1CCN=C2C(N[*:1])=Cc3cc(O)c(O)cc3N21)[*:2]; ξOrn(N(OH)CHO) = NC(CCCN(O)C=O)C(=O)O; Suc = O=C(CCC(=O)[*:2])[*:1]; ξK = NCCCCC(N)C(=O)O; ξS = NC(CO)C(=O)O

Assays:
Format in all cases: cell-based, Pseudomonas aeruginosa
PA14 ΔfpvA mutant = experiment: Growth curves with DSX and siderophores, ΔfpvA; details: 20 h; for growth with siderophore in the presence of DSX: 64 μg/mL DSX + 10 μg/mL siderophore
Method: (§1) Supplementary file : FIG S1 (A) FpvB is expressed in WT PA14 and the ΔfpvA mutant grown in 10:90. PilF was used as a loading control for outer membrane proteins. (B) FpvA is expressed from WT PA14 grown in 10:90. […] PilF was used as a loading control for outer membrane proteins. (C) Growth curves of PA14 and mutants with DSX and different siderophores in 10:90. PA14, ΔfpvA, ΔfpvB, ΔfpvA ΔfpvB, and ΔpvdA ΔpchA strain growth. Blue indicates control, purple indicates treatment with 64 μg/mL DSX, yellow indicates treatment with 10 μg/mL pyoverdine (PA14), and red indicates treatment with 64 μg/mL DSX and 10 μg/mL pyoverdine (PA14). (D) ΔfpvA, ΔfpvA ΔfpvB, and ΔpvdA ΔpchA strain growth. Blue indicates control, purple indicates treatment with 64 μg/mL DSX, grey indicates treatment with 10 μg/mL ferrichrome, and red indicates treatment with 64 μg/mL DSX and 10 μg/mL ferrichrome. (E) ΔfpvA, ΔfpvA ΔfpvB, and ΔpvdA ΔpchA strain growth. […] Download FIG S1, EPS file, 8.5 MB.
(§2) Another explanation for the susceptibility of the ΔfpvA mutant to DSX is that the mutant produces less pyoverdine compared to WT cells due to loss of the signaling cascade that controls siderophore production in response to its binding to FpvA ([25]). To differentiate whether the fpvA mutant was susceptible to DSX because of reduced pyoverdine production or because FpvB was a poor pyoverdine transporter, we treated the WT, ΔfpvA, ΔfpvB, and ΔfpvA ΔfpvB strains with DSX (64 μg/mL) without and with exogenous pyoverdine (10 μg/mL) for 20 h (Fig. 1; see also Fig. S1C). Growth of the ΔfpvA mutant should be restored if there are functional pyoverdine transporters. […] The growth of the ΔfpvA ΔfpvB mutant was inhibited by DSX and pyoverdine, confirming previously published results ([18]).
(§3) As a control, a ΔpvdA ΔpchA mutant unable to make pyoverdine and pyochelin was also tested. Growth of this mutant was inhibited by DSX.

FpvB = experiment: Western blot of FLAG-tagged FpvB expression after compound treatment; details: WT PA14 fpvB-FLAG; 10 μg/mL siderophores, 64 μg/mL DSX, 10:90
[1] = test system: PA14 ΔfpvA ΔfpvB ΔfiuA ΔfoxA quadruple mutant; experiment: Growth phenotypes of deletion mutants, quadruple mutant; details: 64 μg/mL DSX, 10 μg/mL siderophores, 10:90
Description: (§4) PA14, ΔfpvA, ΔfpvB, and ΔfpvA ΔfpvB strains treated with TS (A) and DSX (B) in 10:90. Green indicates growth, and white indicates no growth. Growth is expressed as percent of control. The PA14 ΔfpvA ΔfpvB strain complemented with pHERD20T, fpvA, or fpvB treated with TS (C) and DSX (D) in 10:90. […] All experiments are averaged from three independent biological replicates. Blue indicates growth and white indicates no growth. (H) Summary of growth phenotypes of WT PA14 and combinations of single, double, triple, and quadruple deletion mutants in fpvA, fpvB, fiuA, and foxA. […] Green indicates growth, whereas no growth is indicated in white. […] Representative plates are shown.
(§5) If there were no transporters for a particular siderophore, the mutant would fail to grow due to iron restriction.

[2] = test system: PA14 ΔfpvA ΔfpvB ΔfiuA ΔfoxA pHERD20T-fpvB Y216T; experiment: Growth of quadruple mutant expressing FpvB Y216T; details: 10:90 + 2% arabinose
Method: (§6) Site-directed mutagenesis was used to confirm the docking predictions and to define the molecular determinants for ligand uptake through FpvB (Fig. 4C). We generated 17 single amino acid substitutions in FpvB and expressed each of them in trans in the quadruple ΔfpvA ΔfpvB ΔfiuA ΔfoxA mutant. Their ability to complement growth of the mutant in the presence of ferrichrome and ferrioxamine B and to restore TS susceptibility was assessed. […] The mutant transporters were tagged with a C-terminal FLAG tag to evaluate expression levels. FLAG-tagged FpvB mutants had WT levels of expression except for Y216T and W347V, which were expressed at 140% and 25% of WT, respectively.
(§7) The ΔfpvA ΔfpvB ΔfiuA ΔfoxA mutant was complemented with WT fpvA, fpvB, fiuA, and foxA in trans as controls (Fig. 4E).
(§8) MIC assays were conducted as previously described ([13], [14]). Overnight cultures were grown in LB from a glycerol stock at 37°C with shaking (200 rpm). Subcultures in 10:90 (1:100 dilution) were cultured for 4 h. Cells were adjusted to an optical density at 600 nm (OD600) of 0.1/500 in 10:90. All compounds were serially diluted 2-fold in dimethyl sulfoxide (DMSO) or H2O at 75× the final concentration. […] The next day, the OD600 was determined with a plate reader (Thermo Scientific) and normalized to percent of growth of the vehicle control after subtracting the OD600 from blank media.

[3] = test system: PA14 ΔfpvA ΔfpvB ΔfiuA ΔfoxA pHERD20T-fpvB Y432A; experiment: Growth of quadruple mutant expressing FpvB Y432A; details: 10:90 + 2% arabinose
Method: as §6, §7, §8

[4] = test system: PA14 ΔfpvA ΔfpvB ΔfiuA ΔfoxA pHERD20T-fpvB W347V; experiment: Growth of quadruple mutant expressing FpvB W347V; details: FpvB W347V (expressed at 25% of WT), 10:90 + 2% arabinose
Method: as §6, §7, §8

PA14 ΔfpvB ΔfoxA mutants = experiment: Growth phenotypes of deletion mutants, ΔfpvB ΔfoxA; details: 10 μg/mL ferrioxamine B, 10:90
Description: as §4, §5

PA14 ΔfpvA ΔfpvB mutant = experiment: Growth curves with DSX and siderophores, ΔfpvA ΔfpvB; details: 20 h
Method: as §1, §2, §3

PA14 = experiment: Growth curves with DSX and siderophores, WT PA14; details: 20 h
Method: as §1, §2

PA14 ΔfpvB mutant = experiment: Growth curves with DSX and siderophores, ΔfpvB; details: 20 h
Method: as §1, §2

[5] = DSX 64 μg/mL or pyoverdine 10 μg/mL alone, 10:90
[6] = 64 μg/mL DSX + 10 μg/mL pyoverdine

| Compound | growth with siderophore in the presence of DSX (PA14 ΔfpvA mutant) | stimulation of FpvB expression (FpvB) | growth in the presence of compound [1] | growth in the presence of siderophore [2] | growth in the presence of siderophore [3] | growth in the presence of siderophore [4] | growth in the presence of compound (PA14 ΔfpvB ΔfoxA mutants) | growth with siderophore in the presence of DSX (PA14 ΔfpvA ΔfpvB mutant; 64 μg/mL DSX + 10 μg/mL siderophore) | growth versus control (PA14 ΔfpvA mutant; [5]) | growth with siderophore in the presence of DSX (PA14; [6]) | growth versus control (PA14; [5]) | growth with siderophore in the presence of DSX (PA14 ΔfpvB mutant; [6]) | growth versus control (PA14 ΔfpvB mutant; [5]) | growth versus control (PA14 ΔfpvA ΔfpvB mutant; DSX 64 μg/mL, pyoverdine 10 μg/mL) |
| --- | --- | --- | --- | --- | --- | --- | --- | --- | --- | --- | --- | --- | --- | --- |
| CC(=O)N(O)CCCCCNC(=O)CCC(=O)N(O)CCCCCNC(=O)CCC(=O)N(O)CCCCCN [ferrioxamine B] | rescued growth | None of the compounds stimulated expression | failed to grow | prevented growth | prevented growth | prevented growth | failed to grow | rescued growth |  |  |  |  |  |  |
| NCCCCC(NC(=O)C(CO)NC(=O)[C@@H]1CCN=C2C(NC(=O)CCC(=O)O)=Cc3cc(O)c(O)cc3N21)C(=O)NCC(=O)NC(CCCN(O)C=O)C(=O)NC1CCCCNC(=O)C(CO)NC(=O)C(CCCN(O)C=O)NC1=O (stereo partly shown) [pyoverdine] (Suc-[X1][ξS][ξK]G[ξOrn(N(OH)CHO)][ξK][ξOrn(N(OH)CHO)][ξS]; lactam 6-C) | restored growth compared to DSX alone | None of the compounds stimulated expression |  |  |  |  |  |  | delayed growth | increased growth | increased growth | increased growth | increased growth | inhibited |
